Data taken from patent US20230020319A1, “COMPOSITIONS AND METHODS FOR OPTOCHEMICAL CONTROL OF MTOR SIGNALING AND MTOR-DEPENDENT AUTOPHAGY” (The University of Hong Kong, priority 2021, published 2023).
Entries after “also recorded” stand apart in the source; their conditions may differ.

What was measured:
mTORC1 signaling pathway = test: Western blot of mTORC1 signaling (S6K phosphorylation); format: cell-based; conditions: compared with the control group, with or without light (420 nm, 70 mW/cm^2, 3 min)
Experimental: (§1) FIG. 5 is a photomicrograph showing bands corresponding to each of p-S6K, S6K, p-Akt, Akt, mTOR, and GAPDH, respectively, from cells treated with each of DMSO (control), OSI-027, DEACM, and cOSI-027, respectively, each with (+) or without (−) exposure to light (420 nm, 70 mW/cm^2, 3 min).
(§2) To further investigate the mTOR inhibitory effect of OSI-027 and cOSI-027 with or without light irradiation, western blot was performed to analyze the protein expression level of mTOR pathway (FIG. 5). S6K and Akt phosphorylation ratios were chosen as markers for mTORC1 and mTORC2 signaling pathway investigation, respectively.

mTORC2 signaling pathway = test: Western blot of mTORC2 signaling (Akt phosphorylation); format: cell-based; conditions: compared with the control group, with or without light (420 nm, 70 mW/cm^2, 3 min)
Experimental: as §1, §2

autophagy activity = test: Western blot of autophagy level (LC3-II/LC3-I ratio); format: cell-based
From the text: FIGS. 6A-6B show results of Western blotting and quantification of autophagy. FIG. 6A is a photomicrograph showing bands corresponding to each of LC3-I, LC3-II, and GADPH in cells treated with each of DMSO (control), OSI-027, DEACM, and cOSI-027, respectively, each with (+) or without (−) exposure to light. FIG. 6B is a graph showing normalized LC3-II/LC3-I ratio (0-15) for each of the bands in FIG. 6A including DMSO, OSI-027, DEACM, and cOSI-027, each with or without exposure to light, respectively. Light irradiation was done with a 420 nm LED (70 mW/cm^2, 3 min).
mTORC1 inhibition leads to higher autophagy activity, resulting in enhanced protein degradation ability in the lysosome. Therefore, whether the photochemical-controlled mTOR inhibition strategy can be used for manipulating autophagy activity was investigated. Autophagy level was characterized by the LC3-II/LC3-I ratio through western blot analysis (FIGS. 6A-6B). 24 h after the drug treatment, OSI-027 increased the LC3-II/LC-I ratio compared with the control group, indicating a higher autophagy activity. And cOSI-027 treatment led to a higher LC3-II/LC3-I ratio after light irradiation, compared with non-irradiation group.

[1] = system: mCherry-GFP-LC3 transfected HeLa cell line; test: CLSM of LC3 puncta in mCherry-GFP-LC3 cells; format: cell-based
From the text: FIGS. 7A-7B are photomicrographs showing the presence of mCherry and/or GFP following exposure to different formulations and respective quantitative analysis. FIG. 7A is a panel of photomicrographs showing the presence of mCherry and/or GFP in cells treated with each of DMSO, OSI-027, DEACM, and cOSI-027, each with light irradiation or no light, respectively. FIG. 7B is a graph showing number of LC3 puncta per cell (0-300) for each of the groups in FIG. 7A. Light irradiation was done with a 420 nm LED (70 mW/cm^2, 3 min).
To further validate the photoactivated effect on autophagy, a mCherry-GFP-LC3 transfected HeLa cell line was established to accurately monitor the LC3 expression and subcellular localization.

cancer cells = test: MTT cell viability assay; format: cell-based
Experimental: FIG. 8 is a bar graph showing cell viability (0%-150%) for cell groups treated with each of DMSO (control), OSI-027, DEACM, and cOSI-027, each at 50 μM, respectively, each with (+) or without (−) exposure to light. Light irradiation was done with a 420 nm LED (70 mW/cm^2, 3 min).
To investigate the anti-cancer effect of this photo-activatable prodrug system, MTT assay was further conducted to analyze the cell viability after the treatment with different formulations.

[2] = Photocleavage of cOSI-027 by HPLC, 420 nm light; format: physicochemical; conditions: 70 mW/cm^2
Experimental: FIGS. 4A and 4B show the photocleavage of cOSI-027 by HPLC and quantitative analysis. FIG. 4A is a line graph showing the photocleavage of cOSI-027 by HPLC analysis, with 0-1000 mA.U. at the wavelength (342 nm) for cOSI-027 and for OSI-027 when exposed to 420 nm light at 70 mW/cm^2 for 0, 1, 3, 5, 7, 10, or 15 min, respectively. FIG. 4B is a graph showing remaining cOSI-027 (0-400 μM) and released OSI-027 (0-300 μM) over light irradiation time (0, 1, 3, 5, 7, 10, or 15 min, respectively).
The optochemcial characteristics of the caged OSI-027 prodrug were analyzed by spectroscopy (FIGS. 3A-3C). The absorption peaks of the prodrug were located at 300 nm and 380 nm. The emission peak was located at 460 nm under 380 nm excitation. […] To further verify the photocleavage reaction after light irradiation, high performance liquid chromatography (HPLC) was utilized to monitor the cleavage and release of OSI-027 after light irradiation.

[3] = cited from earlier work

| Structure (SMILES) | phosphorylation of S6K (marker for mTORC1 signaling) (mTORC1 signaling pathway) | phosphorylation of Akt (marker for mTORC2 signaling) (mTORC2 signaling pathway) | LC3-II/LC3-I ratio (autophagy activity; after light irradiation (420 nm LED, 70 mW/cm^2, 3 min), compared with non-irradiation group) | puncta number ([1]; after light irradiation (420 nm LED, 70 mW/cm^2, 3 min)) | cell viability (cancer cells; 50 μM, after light irradiation (420 nm LED, 70 mW/cm^2, 3 min)) | release of OSI-027 (HPLC) ([2]; after 1 min of 420 nm light irradiation) | photocleavage (HPLC) ([2]; after 3 min irradiation, 420 nm) | LC3-II/LC3-I ratio (autophagy activity; 24 h after the drug treatment, compared with the control group) | number and area of red and yellow puncta in the cells ([1]; compared with the control group) | viability at 50 µM (cancer cells; after 48 h incubation) [%] | patients with stable disease ([3]; 8-12-week follow-up assessment) [% patients] | patients free of progression for more than 24 weeks ([3]; of the patients with stable disease) | toxicity and adverse effects ([3]; phase I clinical trial observations) |
| --- | --- | --- | --- | --- | --- | --- | --- | --- | --- | --- | --- | --- | --- |
| CCN(CC)c1ccc2c(COC(=O)C3CCC(c4nc(-c5cc6cccc(OC)c6[nH]5)c5c(N)ncnn45)CC3)cc(=O)oc2c1 (stereo not drawn) [cOSI-027] | only exhibited significant inhibitory effect on mTORC1 and mTORC2 pathway after light irradiation | only exhibited significant inhibitory effect on mTORC1 and mTORC2 pathway after light irradiation | higher | increased | significantly lower | generation of OSI-027 was characterized by the new peak | almost completed | – | – | – | – | – | – |
| COc1cccc2cc(-c3nc([C@H]4CC[C@H](C(=O)O)CC4)n4ncnc(N)c34)[nH]c12 [OSI-027, Trans-4-[4-amino-5-(7-methoxy-1H-indol-2-yl)imidazo[5,1-f][1,2,4]triazin-7-yl]-cyclohexanecarboxylic acid] | decreased | decreased | – | – | – | – | – | increased | significantly increase | ~30 | 29.7 | six | induced dose-limiting toxicities (DLT) and adverse effects; also recorded: induced fatigue, gastrointestinal disorders, decreased cardiac function and cardiomyopathy, bone pain, and hyperglycemia; also recorded: frequently led to renal dysfunction |
